Test results reported in ChEMBL document CHEMBL6120970, “Discovery and Functional Characterization of a Potent, Selective, and Metabolically Stable PROTAC of the Protein Kinases DYRK1A and DYRK1B” (J Med Chem, 2024).
In brackets after ≈: the same amount, converted by molar mass. Activity calls are given as the source filed them. No cut-off for these calls is given here.

Tests used:
[1] = target: Protein cereblon/Dual specificity tyrosine-phosphorylation-regulated kinase 1B (Homo sapiens, UniProt Q96SW2+Q9Y463); assay: Competitive binding affinity to CRBN/DYRK1B (unknown origin) assessed as dissociation constant; format: protein assay
[2] = target: T1, Protein cereblon/Dual specificity tyrosine-phosphorylation-regulated kinase 1A (Homo sapiens, UniProt Q13627+Q96SW2); assay: PROTAC activity at CRBN/DYRK1A in HEK293 cells assessed as induction of degradation of DYRK1A at 1 to 10000 nM incubated for 24 hrs in presence of leucettine-41; format: cell-based; conditions: dose 1-10000 nM
[3] = target: T1, Protein cereblon/Dual specificity tyrosine-phosphorylation-regulated kinase 1A; assay: PROTAC activity at CRBN/HibiT-tagged DYRK1A in HEK293 cells assessed as induction of degradation of DYRK1A at 1 uM measured after 24 hrs by Western blot analysis; format: cell-based
[4] = target: T1, Protein cereblon/Dual specificity tyrosine-phosphorylation-regulated kinase 1A; assay: PROTAC activity at CRBN/DYRK1A in HEK293 cells assessed as induction of degradation of DYRK1A at 100 nM pretreated with leucettine-41 followed by compound addition and incubated for 8 hrs; format: cell-based
[5] = target: T2, Protein cereblon/Dual specificity tyrosine-phosphorylation-regulated kinase 1B (Homo sapiens) (UniProt Q9Y463+Q96SW2); assay: PROTAC activity at CRBN/DYRK1B in HEK293 cells assessed as induction of degradation of DYRK1B at 100 nM pretreated with bortezomib followed by compound addition and incubated for 8 hrs; format: cell-based
[6] = target: T2, Protein cereblon/Dual specificity tyrosine-phosphorylation-regulated kinase 1B (Homo sapiens); assay: PROTAC activity at CRBN/DYRK1B in HEK293 cells assessed as induction of degradation of DYRK1B at 100 nM incubated for 24 hrs; format: cell-based
[7] = Solubility of the compound in FaSSIF buffer; format: physicochemical
[8] = Metabolic stability in mouse liver microsomes assessed as intrinsic clearance; format: ADME, Microsome; conditions: read-out: CLH
[9] = AUClast in mouse at 1 mg/kg, iv administered as single dose; format: ADME, organism-based; conditions: in vivo
[10] = Oral availability in mouse at 10 mg/kg administered as single dose; format: ADME, organism-based; conditions: in vivo

Cc1nc2ccc(-c3ccnc(N)c3)nc2n1-c1ccc(N2CCN(CC#Cc3ccc(N4CCC(C(=O)N5CCC(n6cc(CNc7cccc8c7C(=O)N(C7CCC(=O)NC7=O)C8=O)cn6)CC5)CC4)nc3)CC2)c(F)c1 (stereo not given)
Kd [1]: 16 nM | Activity [2]: inactive | Activity [3]: Active | Activity [4]: inactive | Activity [5]: inactive | Activity [6]: Active | solubility [7]: 0.16 µM (≈ 0.17 µg/mL) | CLint scaled [8]: 3.1 mL/min/kg | AUC(0-t) [9]: 2460 ng·h/mL | bioavailability [10]: 0.25%
